In patent US20200190073A1, “SUBSTITUTED SUCCINIMIDE DERIVATIVES AS PESTICIDES” (BASF SE, priority 2017, published 2020):
Like-named read-outs stand apart in the source and are kept apart here.

How the values were obtained:
Type in all cases: in vivo
[1] = tested on: Diamond back moth (Plutella xylostella); test: B.1 Diamond back moth, cabbage leaf dip; conditions: foliar, 300 ppm, cabbage leaf dip, 3rd instar larvae, 72 hours after treatment, read-out: mortality in comparison with untreated controls
Method: B.1 Diamond back moth (Plutella xylostella)
(§1) The active compound was dissolved at the desired concentration in a mixture of 1:1 (vol:vol) distilled water:acetone. Surfactant (Kinetic HV) was added at a rate of 0.01% (vol/vol). The test solution was prepared at the day of use.
Leaves of cabbage were dipped in test solution and air-dried. Treated leaves were placed in petri dishes lined with moist filter paper and inoculated with ten 3rd instar larvae. Mortality was recorded 72 hours after treatment. Feeding damages were also recorded using a scale of 0-100%.

[2] = tested on: Brown Marmorated Stink Bug (Halyomorpha halys); test: B.13 Brown marmorated stink bug, spray; conditions: 120 h, 100 ppm, adults, after 5 days, read-out: mortality in comparison with untreated controls
Method: B.13 Brown Marmorated Stink Bug (Halyomorpha halys)
as §1
Row peanuts and soybean seeds were placed into microwavable plastic cups and inoculated with five adult stage H. halys. Using a hand atomizer, approximately 1 ml solution is sprayed into each cup, insects and food present. A water source was provided (cotton wick with water) Each treatment is replicated 4-fold. Assay arenas are kept at about 25° C. Percent mortality was recorded after 5 days.

[3] = tested on: Boll Weevil (Anthonomus grandis); test: B.5 Boll weevil, insect diet with eggs; conditions: 120 h, 2500 ppm, egg and larval mortality, 5 days, read-out: mortality in comparison with untreated controls
Method: B.5 Boll Weevil (Anthonomus grandis)
For evaluating control of boll weevil (Anthonomus grandis) the test unit consisted of 96-well-microtiter plates containing an insect diet and 5-10 A. grandis eggs.
The compounds were formulated using a solution containing 75% v/v water and 25% v/v DMSO. Different concentrations of formulated compounds were sprayed onto the insect diet at 5 μl, using a custom built micro atomizer, at two replications.
After application, microtiter plates were incubated at about 25±1° C. and about 75±5% relative humidity for 5 days. Egg and larval mortality was then visually assessed.

[4] = tested on: Green Soldier Stink Bug (Nezara viridula); test: B.11 Green soldier stink bug, sprayed soybean pods; conditions: 120 h, 300 ppm, late 3rd instar, after 5 days, read-out: mortality in comparison with untreated controls
Method: B.11 Green Soldier Stink Bug (Nezara viridula)
The active compound was dissolved at the desired concentration in a mixture of 1:1 (vol:vol) distilled water:acetone. Surfactant (Kinetic HV) was added at a rate of 0.01% (vol/vol). The test solution was prepared at the day of use. Soybean pods were placed in glass Petri dishes lined with moist filter paper and inoculated with ten late 3rd instar N. viridula. Using a hand atomizer, approximately 2 ml solution is sprayed into each Petri dish. Assay arenas were kept at about 25° C. Percent mortality was recorded after 5 days.

[5] = tested on: Green Peach Aphid (Myzus persicae); test: B.2 Green peach aphid, artificial diet, systemic; conditions: 72 h, 2500 ppm, adult aphids on treated diet, 3 days, read-out: mortality in comparison with untreated controls
Description: B.2 Green Peach Aphid (Myzus persicae)
For evaluating control of green peach aphid (Myzus persicae) through systemic means the test unit consisted of 96-well-microtiter plates containing liquid artificial diet under an artificial mem brane.
The compounds were formulated using a solution containing 75% v/v water and 25% v/v DMSO. Different concentrations of formulated compounds were pipetted into the aphid diet, using a custom built pipetter, at two replications.
After application, 5-8 adult aphids were placed on the artificial membrane inside the microtiter plate wells. The aphids were then allowed to suck on the treated aphid diet and incubated at about 23±1° C. and about 50±5% relative humidity for 3 days. Aphid mortality and fecundity was then visually assessed.

[6] = tested on: Rice Green Leafhopper (Nephotettix virescens); test: B.8 Rice green leafhopper, sprayed rice seedlings; conditions: 300 ppm, adults on sprayed rice seedlings, after 72 hours, read-out: mortality in comparison with untreated controls
Method: B.8 Rice Green Leafhopper (Nephotettix virescens)
(§2) Rice seedlings were cleaned and washed 24 hours before spraying. The active compounds were formulated in 1:1 acetone:water (vol:vol), and 0.01% vol/vol surfactant (Kinetic HV) was added. Potted rice seedlings were sprayed with 5-6 ml test solution, air dried, covered with Mylar cages and inoculated with 10 adults. Treated rice plants were kept at about 28-29° C. and relative humidity of about 50-60%. Percent mortality was recorded after 72 hours.

[7] = tested on: Red Spider Mite (Tetranychus kanzawai); test: B.9 Red spider mite, sprayed cowpea beans; conditions: 300 ppm, 72 hours after treatment, read-out: mortality in comparison with untreated controls
Method: B.9 Red Spider Mite (Tetranychus kanzawai)
The active compound was dissolved at the desired concentration in a mixture of 1:1 (vol:vol) distilled water:acetone. Add surfactant (Kinetic HV) was added at a rate of 0.01% (vol/vol).The test solution was prepared at the day of use.
Potted cowpea beans of 4-5 days of age were cleaned with tap water and sprayed with 1-2 ml of the test solution using air driven hand atomizer. The treated plants were allowed to air dry and afterwards inoculated with 30 or more mites by clipping a cassava leaf section from rearing population. Treated plants were placed inside a holding room at about 25-27° C. and about 50-60% relative humidity. Percent mortality was assessed 72 hours after treatment.

[8] = tested on: Vetch Aphid (Megoura viciae); test: B.3 Vetch aphid, broad bean leaf disks; conditions: foliar, 120 h, 2500 ppm, sprayed leaf disks, 5 days, read-out: mortality in comparison with untreated controls
Method: B.3 Vetch Aphid (Megoura viciae)
For evaluating control of vetch aphid (Megoura viciae) through contact or systemic means the test unit consisted of 24-well-microtiter plates containing broad bean leaf disks.
The compounds were formulated using a solution containing 75% v/v water and 25% v/v DMSO. Different concentrations of formulated compounds were sprayed onto the leaf disks at 2.5 μl, using a custom built micro atomizer, at two replications.
After application, the leaf disks were air-dried and 5-8 adult aphids placed on the leaf disks inside the microtiter plate wells. The aphids were then allowed to suck on the treated leaf disks and incubated at about 23±1° C. and about 50±5% relative humidity for 5 days. Aphid mortality and fecundity was then visually assessed.

[9] = tested on: Neotropical Brown Stink Bug (Euschistus heros); test: B.12 Neotropical brown stink bug, dipped pole bean; conditions: 120 h, 500 ppm, adults, 5 days, read-out: mortality in comparison with untreated controls
Method: B.12 Neotropical Brown Stink Bug (Euschistus heros)
For evaluating control of Euschistus heros through contact the test unit consisted of 100 ml disposable plastic beakers with transparent lids.
The compounds were formulated using a solution containing 50% water and 50% acetone. 50 ml of different concentrations of formulated compounds or mixtures were prepared in a glass petri dish and used for dipping three 6 cm sections of fresh pole bean. Each treatment was replicated eight times.
After application, the pole bean sections were air-dried and 5 adult E. heros placed in each beaker. The E. heros were then allowed to suck on the treated pole bean sections and incubated at 23±1° C., 50±5% RH for 5 days. E. heros mortality was then visually assessed.

[10] = tested on: Diamond back moth (Plutella xylostella); test: CE.6 Diamond back moth, contact activity, comparative test; conditions: 0.1 ppm, contact activity, third-instar larvae sprayed, read-out: % mortality in comparison to untreated controls
Method: (§3) The tables show % mortality in comparison to untreated controls.
CE.6 Diamond Back Moth (Plutella xylostella)
Ten third-instar larvae are sprayed with 1 ml test solution and introduce to untreated leaves held petri dished lined with moist filter paper. Mortality is recorded 24, 72, and 120 hours after treatment.

[11] = tested on: Orchid Thrips (Dichromothrips Corbetti); test: B.7 Orchid thrips, floral immersion; conditions: 300 ppm; adult thrips; 72 hours after treatment; read-out: mortality in comparison with untreated controls
Method: B.7 Orchid Thrips (Dichromothrips Corbetti)
Dichromothrips corbetti adults used for bioassay were obtained from a colony maintained continuously under laboratory conditions. For testing purposes, the test compound is diluted in a 1:1 mixture of acetone:water (vol:vol), plus Kinetic HV at a rate of 0.01% v/v.
Thrips potency of each compound was evaluated by using a floral-immersion technique. All petals of individual, intact orchid flowers were dipped into treatment solution and allowed to dry in Petri dishes. Treated petals were placed into individual re-sealable plastic along with about 20 adult thrips. All test arenas were held under continuous light and a temperature of about 28° C. for duration of the assay. After 3 days, the numbers of live thrips were counted on each petal. The percent mortality was recorded 72 hours after treatment.

[12] = tested on: Tobacco Budworm (Heliothis virescens); test: B.4 Tobacco budworm, insect diet with eggs; conditions: 120 h, 2500 ppm, egg and larval mortality, 5 days, read-out: mortality in comparison with untreated controls
Method: B.4 Tobacco Budworm (Heliothis virescens)
For evaluating control of tobacco budworm (Heliothis virescens) the test unit consisted of 96-well-microtiter plates containing an insect diet and 15-25 H. virescens eggs.
The compounds were formulated using a solution containing 75% v/v water and 25% v/v DMSO. Different concentrations of formulated compounds were sprayed onto the insect diet at 10 μl, using a custom built micro atomizer, at two replications.
After application, microtiter plates were incubated at about 28±1° C. and about 80±5% relative humidity for 5 days. Egg and larval mortality was then visually assessed.

[13] = tested on: Orchid Thrips (Dichromothrips Corbetti); test: CE.3 Orchid thrips, comparative test; conditions: 96 h, read-out: % mortality in comparison to untreated controls
Method: as §3
CE.3 Orchid Thrips (Dichromothrips Corbetti)
Dichromothrips corbetti adults used for bioassay were obtained from a colony maintained continuously under laboratory conditions. For testing purposes, the test compound was diluted to a concentration of 300 ppm (wt compound: vol diluent) in a 1:1 mixture of acetone:water (vol:vol), plus 0.01% vol/vol Kinetic® surfactant.
Thrips potency of each compound was evaluated by using a floral-immersion technique. Plastic petri dishes were used as test arenas. All petals of individual, intact orchid flowers were dipped into treatment solution and allowed to dry. Treated flowers were placed into individual petri dishes along with 10-15 adult thrips. The petri dishes were then covered with lids. All test arenas were held under continuous light and a temperature of about 280C for duration of the assay. After 4 days, the numbers of live thrips were counted on each flower, and along inner walls of each petri dish. The level of thrips mortality was extrapolated from pre-treatment thrips numbers.

[14] = tested on: Rice Brown Plant Hopper (Nilaparvata lugens); test: CE.2 Rice brown plant hopper, comparative test; conditions: read-out: % mortality in comparison to untreated controls
Method: as §3
CE.2 Rice Brown Plant Hopper (Nilaparvata lugens)
as §2, with “50:50” for “1:1”, “(vol:vol)” for “(vol:vol),”, “0.1%” for “0.01%”, “(EL 620)” for “(Kinetic HV)”, “5” for “5-6”, “placed in” for “covered with Mylar”

[15] = tested on: Cowpea Aphid (Aphis Craccivora); test: CE.1 Cowpea aphid, comparative test; conditions: read-out: % mortality in comparison to untreated controls
Method: as §3
CE.1 Cowpea Aphid (Aphis Craccivora)
Potted cowpea plants colonized with approximately 100-150 aphids of various stages were sprayed after the pest population has been recorded. Population reduction was assessed after 24, 72, and 120 hours.

[16] = tested on: Silverleaf Whitefly (Bemisia argentifolii); test: CE.4 Silverleaf whitefly, comparative test; conditions: 72 h, read-out: % mortality in comparison to untreated controls
Method: as §3
CE.4 Silverleaf Whitefly (Bemisia argentifolii)
The active compounds were formulated in 50:50 acetone:water (vol:vol) and 100 ppm Kinetica™ surfactant.
Selected cotton plants were grown to the cotyledon state (one plant per pot). The cotyledons were dipped into the test solution to provide complete coverage of the foliage and placed in a well-vented area to dry. Each pot with treated seedling was placed in a plastic cup and 10 to 12 whitefly adults (approximately 3-5 day old) were introduced. The insects were collected using an aspirator and a Tygon® tubing connected to a barrier pipette tip. The tip, containing the collected insects, was then gently inserted into the soil containing the treated plant, allowing insects to crawl out of the tip to reach the foliage for feeding. The cups were covered with a reusable screened lid. Test plants were maintained in the holding room at about 25° C. and about 20-40% relative humidity for 3 days avoiding direct exposure to the fluorescent light (24 hour photoperiod) to prevent trapping of heat inside the cup. Mortality was assessed 3 days after treatment of the plants.

[17] = tested on: Rice Green Leafhopper (Nephotettix virescens); test: CE.5 Rice green leafhopper, comparative test; conditions: 3 ppm, after 72 hours, read-out: % mortality in comparison to untreated controls
Method: as §3
CE.5 Rice Green Leafhopper (Nephotettix virescens)
as §2, with “50:50” for “1:1”, “0.1%” for “0.01%”, “(EL 620)” for “(Kinetic HV)”, “5” for “5-6”, “placed in” for “covered with Mylar”

CN1C(=O)CC(NC(=O)c2ccc(C3=NOC(c4ccc(F)c(Cl)c4)(C(F)(F)F)C3)c3c2CCC3)C1=O (stereo not drawn) [Compound I-1-11]
mortality at 300 ppm [1]: > 75%
mortality at 100 ppm [2]: > 75%
mortality at 2500 ppm [3]: > 75%
mortality at 300 ppm [4]: > 75%
mortality at 2500 ppm [5]: > 75%
mortality at 300 ppm [6]: > 75%
mortality at 300 ppm [7]: > 75%
mortality at 2500 ppm [8]: > 75%
mortality at 500 ppm [9]: > 75%
mortality at 0.1 ppm [10]: 75%
mortality at 300 ppm [11]: > 75%
mortality at 2500 ppm [12]: > 75%

Cc1cc(C2=NOC(c3cc(Cl)cc(Cl)c3)(C(F)(F)F)C2)ccc1C(=O)NC1CCN(CC(F)(F)F)C1=O (stereo not drawn) [No. 5-405 of US 20070066617, reference compound]
mortality at 10 ppm [13]: 0%
mortality at 10 ppm ([14]; 72 h): 0%
mortality at 10 ppm [15]: 25%
mortality at 10 ppm [16]: 25%

CCN1CCC(NC(=O)c2ccc(C3=CCC(c4ccc(F)c(Cl)c4)(C(F)(F)F)C3)cc2Cl)C1=O (stereo not drawn) [No. I-9 of WO 2017/016883]
mortality at 10 ppm ([13]; 10 ppm, after 4 days): 0%
mortality at 10 ppm ([14]; 10 ppm, after 72 hours): 25%
mortality at 3 ppm [17]: 0%
mortality at 10 ppm ([15]; 10 ppm, sprayed cowpea plants): 25%
mortality at 10 ppm ([16]; 10 ppm, 3 days after treatment): 25%
